Converted amounts (≈) assume the structure as drawn. Where two headings read alike, the source gives them in different places.
Legend:
physchem = settings: thermodynamic from solid
[1] = MDCK-MDR1 permeability assay; type: in vitro ADME; settings: MDCK-MDR1, pH 7.4, @ 5 μM, apical to basolateral, with P-gp inhibitor elacridar (2 μM); read-out: MDCK-MDR1 P^eapp(A-B)
Experimental: (§5) Permeability measurements were conducted according to the Cyprotex protocol using the MDCK-MDR1 cell line obtained from the NIH (Rockville, Md., USA). […] The cells in this assay form a cohesive sheet of a single cell layer filing the surface area of the culture dish, also known as a confluent monolayer, and on day four the test compound was added to the apical side of the membrane and the transport of the compound across the monolayer was monitored over a time period of 60 min.
(§6) Test compounds were dissolved in DMSO at a concentration of 10 mM. The dosing solutions were prepared by diluting test compound with assay buffer (Hanks Balanced Salt Solution), pH 7.4, at a final concentration of 5 μM. For assessment of apical to basolateral (“A-B”) permeability, buffer was removed from the apical compartment and replaced with test compound dosing solution with or without the permeability glycoprotein (“PgP”, “P-gP”, “Pgp” or “P-gp”) inhibitor elacridar (2 μM). For assessment of basolateral to apical (“B-A”) permeability, buffer was removed from the companion plate and replaced with test compound dosing solution. Incubations were carried out in duplicate at 37° C. in an atmosphere of 5% CO2 with a relative humidity of 95%. […] After incubation for 60 minutes, apical and basolateral samples were diluted and test compounds quantified by LC/MS/MS using an 8-point calibration in the range 0.0039 to 3 μM with appropriate dilution of the samples (receiver dilution factor=1; donor and C0 dilution factor=10). The permeability coefficient (Papp) for each compound was calculated from the following equation: Papp=(dQ/dt)/(C0×S), where dQ/dt is the rate of permeation of the drug across the cells, C0 is the donor compartment concentration at time zero, and S is the area of the cell monolayer.
(§7) The percent recovery was measured for all incubation conditions.
(§8) Papp(A-B) gives an indication of permeation extent across the cells in this assay, which is envisaged to model the transcellular transport across Pgp-expressing cells, such as Pgp-expressing gastrointestinal tract cells.
(§9) The integrity of each monolayer was monitored by examining the permeation of lucifer yellow by fluorimetric analysis.

P-gp (MDR1) = assay: MDCK-MDR1 permeability assay; type: in vitro ADME; settings: dog; for Papp A→B at 60 min, 5 μM: apical to basolateral; for Papp B→A at 60 min, 5 μM: MDCK-MDR1, pH 7.4, basolateral to apical; for efflux ratio at 60 min, 5 μM: pH 7.4, MDCK-MDR1, @ 5 μM, read-out: Papp(B-A)/Papp(A-B) efflux ratio
Experimental: as §5, §6, §7, §8, §9

[2] = In vivo oral (p.o.) dosing, plasma and colon concentrations (Protocols 1 and 2); set-up: species or system female C57BL/6 mice; settings: mice, 25 mg/kg p.o.
Experimental: These protocols are described below under the heading In vivo Studies. Three non-fasted female C57BL/6 mice were orally administered test compound at a dose of 25 mg/kg p.o. as a solution in 20% hydroxypropyl-beta-cyclodextrin (HPβCD) at a dose volume of 5 mL/kg. Blood samples were collected at 0.5, 2, and 4 h post dose via retro-orbital bleed or venipuncture of the dorsal metatarsal vein. Blood samples were collected into tubes containing anticoagulant (Heparin-Na) and placed on wet ice. […] Colon samples were collected at 4 h post dose. […] The colon was further washed by putting it in 5 mL of saline and shaken for 5 seconds. The colon sample was then patted dry, weighed, and homogenized as 1 part tissue (g) to 4 parts HPLC grade water (mL). Concentrations of the compound in plasma and colon homogenate were determined using a qualified liquid chromatography-triple quadrupole mass spectrometry (LC-MS/MS) method. […] Three non-fasted female C57BL/6 mice were orally administered test compound at a dose of 25 mg/kg p.o. as a solution in 20% HPβCD at a dose volume of 5 mL/kg. Blood samples were collected at 0.5, 2, and 4 h post dose via retro-orbital bleed or dorsal metatarsal vein. Blood samples were collected into tubes containing anticoagulant (Heparin-Na) and placed on wet ice. […] Colon samples were collected at 4 h post dose. […] The colon was further washed by putting it in 5 mL of saline and shaken for 5 seconds. The colon sample was then patted dry, weighed, and homogenized as 1 part tissue (g) to 4 parts HPLC grade water (mL). Concentrations of the compound in plasma and colon homogenate were determined using a qualified liquid chromatography-triple quadrupole mass spectrometry (LC-MS/MS) method.

[3] = pH 6.5
Tyk2-JH1JH2 = Tyk2-JH1JH2 (Homo sapiens (Human), UniProt P29597, C1142A/C936A); assay: Enzymatic inhibition assay (HTMS); type: biochemical; settings: 50 μM ATP; read-out: Tyk2_I_JH1JH2 IC50
Tyk2-JH1JH2, sequence (P29597 580-1182 C936A/C1142A): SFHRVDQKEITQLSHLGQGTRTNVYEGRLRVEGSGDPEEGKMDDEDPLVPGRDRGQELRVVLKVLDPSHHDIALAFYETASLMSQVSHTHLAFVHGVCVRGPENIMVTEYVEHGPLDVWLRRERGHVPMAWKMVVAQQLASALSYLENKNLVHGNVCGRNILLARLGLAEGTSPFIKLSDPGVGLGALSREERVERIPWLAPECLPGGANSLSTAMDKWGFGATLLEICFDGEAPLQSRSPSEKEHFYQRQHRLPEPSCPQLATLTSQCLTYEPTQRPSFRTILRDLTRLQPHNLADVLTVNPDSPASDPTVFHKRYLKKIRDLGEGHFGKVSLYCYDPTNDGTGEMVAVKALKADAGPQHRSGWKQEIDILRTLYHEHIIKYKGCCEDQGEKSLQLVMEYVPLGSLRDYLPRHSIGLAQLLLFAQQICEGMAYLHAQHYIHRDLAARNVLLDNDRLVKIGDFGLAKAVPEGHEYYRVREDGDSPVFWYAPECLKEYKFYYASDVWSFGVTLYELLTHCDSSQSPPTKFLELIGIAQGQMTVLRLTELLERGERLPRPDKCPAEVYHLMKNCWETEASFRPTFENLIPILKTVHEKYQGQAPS
Description: (§1) JAK1-JH1JH2 (574-1154 with a His-GST Tag and a C-terminal tev (ENLYFQ-G) cleavage site), JAK3-JH1JH2 (512-1124 with a GST Tag and a C-terminal tev (ENLYFQ-G) cleavage site), and Tyk2-JH1JH2 (8H_tev_580-1182-C936A-C1142A with a C-terminal tev (ENLYFQ-G) cleavage site) were purified internally. […] LC/MS grade water and acetonitrile (ACN), were purchased from HoneyWell, Burdick & Jackson (Muskegon, Mich., USA). Dimethylsulfoxide 99.8% (DMSO) and trifluoroacetic acid 99.5% (TFA) were purchased from EMD Chemical (Gibbstown, N.J., USA). Adenosine triphosphate (ATP), 4-morpholinepropanesulfonic acid (MOPS), magnesium chloride (MgCl2), ethylenediaminetetraacetic acid (EDTA), dithiothreitol (DTT), formic acid>95% (FA) and Tween-20 were purchased from Sigma (St Louis, Mo., USA). 384-well polypropylene plates, Cat#781280 were purchased from Greiner (Monroe, N.C.), RapidFire™ cartridge A C4 Column (Agilent Technologies, Santa Clara, Calif.).
(§2) The HTMS experiments were performed in positive ionization mode on a RapidFire 300 instrument (Agilent Technologies, Santa Clara, Calif.), coupled with an ABSiex QTrap 4000 system with an Electrospray Ionization source (RF-MS) (Concord, ON, Canada). […] The entire system was operated using the RapidFire software interfaced with Analyst software for the mass spectrometer.
(§3) 11-point dosing series were made for each compound by serially diluting 1:3 or 1:4 in DMSO, with point 12 being a DMSO control. From the serial dilution plates, sample was transferred to a 384 wells assay plate (#781280, Greiner, Monroe, N.C.) using Labcyte Echo (Sunnyvale, Calif.), or Biosero ATS (San Diego, Calif.). The compounds were tested in duplicate. Column 12 was used for positive controls, and column 24 contained negative controls with no enzyme added. A compound from our internal collection, with inhibitory activity for JAK isoforms, was used as a reference compound. The final concentration of DMSO was ≤0.25% in a 20 μL reaction. The enzyme reaction was initiated by the addition of 10 μL of enzyme and ATP mixture to 10 μL of substrate solution prepared in reaction buffer (50 mM MOPS pH 7.5, 10 mM MgCl2, 1 mM EDTA, 2 mM DTT, 0.002% Tween-20). The Tyk2 enzyme was pre-incubated with 2 mM ATP for 30 min prior to the reaction initiation. Immediately after the addition of the enzyme to the reaction mixture, the plate was centrifuged at 1000 rpm for 1 minute and incubated at 25° C. for 45 minutes for JAK3 and 90 minutes for JAK1, JAK2 and Tyk2. The reaction was quenched by the addition of 20 μL of 0.5% TFA containing 0.15 μM of internal standard peptide using Multidrop Combi reagent dispenser (Thermo Scientific, Waltham, Mass.). […] After the quench, the assay plate was centrifuged at 3000 rpm for 3 minutes and sealed with pierceable aluminum foil (Cat#06644-001, Agilent) using a PlateLoc (Agilent Technologies, Santa Clara, Calif.). The plates then were transferred on to the RapidFire for the MS analysis. Compound inhibition was assessed by a decrease of the phosphorylated product levels in sample wells compared to the non-inhibited enzyme reaction.
(§4) The sample analysis on the RapidFire was performed using a mobile phase A1 consisting of Water/TFA/FA (100:0.01:0.1, v/v/v), a mobile phase B1 consisting of ACN/Water/TFA/FA (80:20:0.01:0.1, v/v/v). […] The samples were aspirated directly from the 384-well assay plate and delivered onto RF-MS microscale solid-phase C4 extraction cartridge (Type A). The undesired component such as salt, cofactor, detergent and large protein were washed out and the retained analytes (substrate, product and IS) were coeluted directly onto the AB Siex Qtrap 4000 system.

JAK1-JH1JH2 = JAK1-JH1JH2 (Homo sapiens (Human), UniProt P23458); assay: Enzymatic inhibition assay (HTMS); type: biochemical; settings: 12.5 μM ATP; read-out: JAK1_JH1JH2 IC50
JAK1-JH1JH2, sequence (P23458 574-1154): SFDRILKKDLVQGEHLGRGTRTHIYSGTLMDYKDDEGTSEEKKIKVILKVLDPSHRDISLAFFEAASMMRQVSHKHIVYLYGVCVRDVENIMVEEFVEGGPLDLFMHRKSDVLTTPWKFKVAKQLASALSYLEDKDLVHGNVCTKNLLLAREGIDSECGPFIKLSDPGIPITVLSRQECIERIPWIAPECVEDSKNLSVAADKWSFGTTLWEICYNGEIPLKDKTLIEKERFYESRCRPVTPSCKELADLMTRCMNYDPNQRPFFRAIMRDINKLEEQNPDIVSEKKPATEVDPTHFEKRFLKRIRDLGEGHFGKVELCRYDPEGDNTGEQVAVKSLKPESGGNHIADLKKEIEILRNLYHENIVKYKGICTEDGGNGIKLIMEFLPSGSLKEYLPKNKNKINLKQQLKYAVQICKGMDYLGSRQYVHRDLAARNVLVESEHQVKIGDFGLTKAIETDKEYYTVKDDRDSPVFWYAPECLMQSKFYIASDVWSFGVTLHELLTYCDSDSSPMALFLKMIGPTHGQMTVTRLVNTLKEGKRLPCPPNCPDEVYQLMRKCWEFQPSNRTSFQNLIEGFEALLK
Description: as §1, §2, §3, §4

JAK3-JH1JH2 = JAK3-JH1JH2 (Homo sapiens (Human), UniProt P52333); assay: Enzymatic inhibition assay (HTMS); type: biochemical; settings: 150 μM ATP; read-out: JAK3_I_JH1JH2 IC50
JAK3-JH1JH2, sequence (P52333 512-1124): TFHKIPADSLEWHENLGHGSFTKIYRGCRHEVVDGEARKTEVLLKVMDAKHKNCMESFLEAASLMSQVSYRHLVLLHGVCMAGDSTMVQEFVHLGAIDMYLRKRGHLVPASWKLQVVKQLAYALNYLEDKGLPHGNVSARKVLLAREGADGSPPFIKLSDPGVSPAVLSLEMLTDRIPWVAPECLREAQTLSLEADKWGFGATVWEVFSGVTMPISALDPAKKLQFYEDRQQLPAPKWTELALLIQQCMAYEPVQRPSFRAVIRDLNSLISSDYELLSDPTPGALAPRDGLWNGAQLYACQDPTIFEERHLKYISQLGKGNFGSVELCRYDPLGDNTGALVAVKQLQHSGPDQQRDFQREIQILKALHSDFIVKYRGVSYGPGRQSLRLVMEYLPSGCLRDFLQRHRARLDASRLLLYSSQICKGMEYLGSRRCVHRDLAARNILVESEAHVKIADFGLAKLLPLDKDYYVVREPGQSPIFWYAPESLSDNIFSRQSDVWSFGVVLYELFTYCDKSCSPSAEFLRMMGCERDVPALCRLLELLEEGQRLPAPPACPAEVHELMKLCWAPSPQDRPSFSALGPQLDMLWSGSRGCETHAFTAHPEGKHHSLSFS
Description: as §1, §2, §3, §4

IL-2 pSTAT5 (JAK1/JAK3) = IL-2 pSTAT5 (JAK1/JAK3) cellular assay, AlphaLISA in PBMCs; type: cell-based; settings: PBMC, IL-2 5 ng/mL
Experimental: The AlphaLISA assay (based on Alpha Technology from PerkinElmer) was performed by first plating freshly thawed PBMCs (Biological Specialty Corporation) in 384-well plates at 30,000 cells per 4 μL per well in HBSS (Hanks' Balanced Salt Solution) containing 0.1% IgG (immunoglobulin G)-free, protease-free BSA (bovine serum albumin) (Jackson ImmunoResearch Cat. No. 001-000-161). The cells were then treated with 2 μL/well of compounds diluted in DMSO at half-log titrated concentrations, with a highest test concentration of 10 μM and 0.5% final DMSO concentration, for thirty minutes at 37° C. […] The cellular reactions were terminated by the addition of 2 μL/well of lysis buffer (PerkinElmer Cat. No. ALSU-PST5-A10K) followed by an incubation of five minutes at room temperature. 5 μL/well of acceptor mix (PerkinElmer Cat. No. ALSU-PST5-A10K) was added to the cells and incubated in the dark for one hour at room temperature. Then, 5 μL/well of donor mix (PerkinElmer Cat. No. ALSU-PST5-A10K) was added to the cells and incubated in the dark overnight at room temperature. Finally, the plates were read on a PerkinElmer EnVision for detection of the time-resolved fluorescence signal. The percentage of IL-2-dependent pSTAT5 inhibition was determined at the compound test concentrations; and for each compound, a dose curve was generated and the IC50 was calculated. Compound IC50 was calculated by nonlinear regression, sigmoidal dose response analysis of the half-log dilution titration curve of the compound concentration vs. Alpha signal. The acronym “Alpha” stands for amplified luminescent proximity homogeneous assay; the Alpha signal is a luminescent/fluorescent signal.

IFNα pSTAT4 (JAK1/TYK2) = IFNα pSTAT4 (JAK1/TYK2) cellular assay, AlphaLISA in PBMCs; type: cell-based; settings: PBMC, IFNα 4 ng/mL
Experimental: The AlphaLISA assay (based on Alpha Technology from PerkinElmer) was performed by first plating freshly thawed PBMCs (Biological Specialty Corporation) in 384-well plates at 100,000 cells per 6 μL per well in DMEM (Dulbecco's Modified Eagle Medium) containing 10% FBS (fetal bovine serum) and 1,000 I.U./mL penicillin and 1,000 μg/mL streptomycin. The cells were then treated with 2 μL/well of compounds diluted in DMSO at half-log titrated concentrations, with a highest test concentration of 10 μM and 0.5% final DMSO concentration, for thirty minutes at 37° C. Next, the cells were stimulated with 2 μL/well of IFNα (PBL Assay Science Cat. No. 11101-2) at 4 ng/mL for thirty minutes at 37° C. The cellular reactions were terminated by the addition of 2 μL/well of lysis buffer (PerkinElmer Cat. No. ALSU-PST4-A10K) followed by an incubation of five minutes at room temperature. 4 μL/well of acceptor mix (PerkinElmer Cat. No. ALSU-PST4-A10K) was added to the cells and incubated in the dark for one hour at room temperature. Then, 4 μL/well of donor mix (PerkinElmer Cat. No. ALSU-PST4-A10K) was added to the cells and incubated in the dark overnight at room temperature. Finally, the plates were read on a PerkinElmer EnVision for detection of the time-resolved fluorescence signal. The percentage of IFNα-dependent pSTAT4 inhibition was determined at the compound test concentrations; and for each compound, a dose curve was generated and the IC50 was calculated. Compound IC50 was calculated by nonlinear regression, sigmoidal dose response analysis of the half-log dilution titration curve of the compound concentration vs. Alpha signal. The term “Alpha” is defined in the immediately preceding cellular assay description.

[4] = MDCK-MDR1, pH 7.4, @ 5 μM, without elacridar, read-out: MDCK-MDR1 Papp(A-B)
[5] = MDCK-MDR1, pH 7.4, with elacridar 2 μM, @ 5 μM, with P-gp inhibitor elacridar (2 μM), read-out: MDCK-MDR1 P^eapp(A-B)

SMILES	solubility (physchem; pH 6.5, fassif) [µM]	solubility (physchem; simulated gastric fluid) [µM]	Papp A→B [1] [×10⁻⁶ cm/s]	Papp A→B at 60 min, 5 μM (P-gp (MDR1); [4]) [×10⁻⁶ cm/s]	Papp B→A at 60 min, 5 μM (P-gp (MDR1); @ 5 μM) [×10⁻⁶ cm/s]	efflux ratio at 60 min, 5 μM (P-gp (MDR1))	Plasma Concentration After p.o. Dosing, Mean ([2]; Time = 0.5 h) [ng/mL]	Plasma Concentration After p.o. Dosing, Mean ([2]; Time = 2 h) [ng/mL]	Colon Concentration After p.o. Dosing, Mean ([2]; Time = 4 h) [ng/g]	Plasma Concentration After p.o. Dosing, Mean ([2]; Time = 4 h) [ng/mL]	SIF solubility [3] [µM]	IC50 (Tyk2-JH1JH2) [µM]	IC50 (JAK1-JH1JH2) [µM]	IC50 (JAK3-JH1JH2) [µM]	IC50 (IL-2 pSTAT5 (JAK1/JAK3)) [µM]	Papp A→B at 60 min, 5 μM (P-gp (MDR1); [5]) [×10⁻⁶ cm/s]	IC50 (IFNα pSTAT4 (JAK1/TYK2)) [µM]
Cc1nc2cnc3[nH]ccc3c2n1[C@H]1CC[C@H](CC#N)CC1 [A]	> 400	> 400	22	1.3	55.3	43	347.0	69.1	895.0	84.5							
N#CC[C@H]1CC[C@H](n2c(CO)nc3cnc4[nH]ccc4c32)CC1 [B]	75 (≈ 23.2 µg/mL)	> 400	1.7	0.4	23.5	59	352.7	66.3	6076.7	11.3							
Cn1cc(NC(=O)Cc2nc3cnc4[nH]ccc4c3n2[C@H]2CC[C@H](CC#N)CC2)cn1 [Ex. 9, 2-(1-((1r,4r)-4-(Cyanomethyl)cyclohexyl)-1,6-dihydroimidazo[4,5-d]pyrrolo[2,3-b]pyridin-2-yl)-N-(1-methyl-1H-pyrazol-4-yl)acetamide]											>400	0.0047	0.0002	0.0799	0.0112	0.6	0.0359
N#CC[C@H]1CC[C@H](n2c(CC(=O)Nc3cc[nH]n3)nc3cnc4[nH]ccc4c32)CC1 [Ex. 11, 2-(1-((1r,4r)-4-(Cyanomethyl)cyclohexyl)-1,6-dihydroimidazo[4,5-d]pyrrolo[2,3-b]pyridin-2-yl)-N-(1H-pyrazol-3-yl)acetamide]											>400	0.0015	0.0004	0.0303	0.0491	0.8	0.0965

— patent US10294226B2, “Small molecule inhibitors of the JAK family of kinases” (Janssen Pharmaceutica NV, priority 2016, dated 2019)
